In patent US5185442A, “New diazepines substituted in the 6-position, processes for their preparation and their use as pharmaceutical compositions” (Boehringer Ingelheim KG, priority 1991, dated 1993):

Target: T1, PAF receptor (vital human blood platelets) (Homo sapiens, UniProt P25105)
T1 construct: endogenous in cells; host or cells: vital human blood platelets (thrombocytes) from blood samples of healthy donors, purified on Sepharose CL-2B
Experiment: [3H]PAF receptor binding to vital human blood platelets
Conditions: [3H]PAF 30 pmolar, 90 minutes, ambient temperature, Ki calculated from IC50
Description: [^3 H]PAF receptor binding to vital human blood platelets
This experiment determined the competitive interaction of the test substances (in this case PAF-antagonists) with the known interaction of the radioligand [^3 H]PAF to the same receptor.
The bonding studies were carried out on vital human thrombocytes. Blood samples from healthy donors were diluted with ACD buffer and centrifuged (15 minutes, 160×g). The platelet-rich plasma was purified by chromatography on Sepharose CL-2B (for eluting: HEPES buffer, pH 7.4, 20° C.).
Defined quantities (e.g., 800 μl) of the platelet suspension were incubated for 90 minutes at ambient temperature with:
a) a 30 pmolar [^3 H]PAF solution diluted with buffer;
b) a 30 pmolar [^3 H]PAF solution which simultaneously contains a μmolar (non-labelled) PAF solution; and
c) a 30 pmolar [^3 H]PAF solution and the solutions of the test substances (different concentrations).
Incubation a) was used to determine total binding. Incubation b) was used to determine non-specific binding.
The reaction was stopped by vacuum filtering. The filters with the blood platelets were mixed with scintillation liquid and the residual radioactivity was measured in a counter. The specific binding was obtained from the total binding minus the non-specific binding. […]

T1 sequence (P25105 whole entry): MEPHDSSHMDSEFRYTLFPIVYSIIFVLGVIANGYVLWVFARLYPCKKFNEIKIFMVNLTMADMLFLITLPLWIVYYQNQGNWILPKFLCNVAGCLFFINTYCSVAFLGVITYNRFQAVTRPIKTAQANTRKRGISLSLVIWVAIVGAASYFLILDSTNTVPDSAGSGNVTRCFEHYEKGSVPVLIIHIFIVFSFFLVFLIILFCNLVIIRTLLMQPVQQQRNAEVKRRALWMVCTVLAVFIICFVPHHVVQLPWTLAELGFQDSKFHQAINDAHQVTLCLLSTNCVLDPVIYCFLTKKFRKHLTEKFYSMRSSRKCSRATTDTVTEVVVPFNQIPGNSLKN

Structure (SMILES): Cc1nnc2n1-c1sc3c(c1C(c1ccc(CCc4ccc(C(F)(F)F)cc4)cc1)=NC2C)CCC3 (racemic) [Compound 1]
- Ki: 790 pM

Structure (SMILES): Cc1nnc2n1-c1sc3c(c1C(c1ccc(CCc4ccc(C(F)(F)F)cc4)cc1)=N[C@H]2C)CCC3 [Compound 2]
- Ki: 470 pM
